From patent publication US6534515B2, “20,21-dinor-eburnamenines” (Aventis Pharma S.A., priority 1989, dated 2003)

Assays:
[1] = system: adrenergic alpha2 receptors; experiment: Affinity for the adrenergic alpha 2 receptors (3H rauwolscine displacement, rat cortex membranes); format: binding; conditions: rat brain cortex membranes, 3H rauwolscine 0.15 nM, 45 minutes at 25° C.; CD/CX = concentrations of phentolamine/product inhibiting 50% of specific fixation
Procedure: 1) Affinity for the Adrenergic Alpha 2 Receptors:
10 cortices removed from the brains of male rats weighing an average of 150 g were homogenized in 90 ml of 0.32 M sucrose. After centrifuging 1000 g of the homogenized mixture, for 10 minutes at 0° C.+4° C., the deposit was suspended in 240 ml of 50 mM Tris HCl pH 7.7 buffer, and centrifuged at 30,000 g for 15 minutes at 0°+4° C. The new deposit was suspended in 480 ml of 50 mM NaKPO4 pH 7.4 buffer. Then, 2 ml of suspension were incubated for 45 minutes at 25° C. in the presence of ^3H rauwolscine at a concentration of 0.15 nM:
I) alone or II) with increasing concentrations of the product under test or, III) to determine the non-specific fixation with non-radioactive phentolamine at a concentration of 10^−5M.
The incubated suspensionis were filtered on Whatman GF/C and the filters were washed three times with 5 ml of NaKPO4 pH 7.4 buffer at 0° C. The ratioactivity of the filters was measured by liquid scintillation. The affinity of the product tested for the adrenergic alpha2 receptors was determined relative to phentolamine as reference product.
CD=concentration of phentolamine inhibiting 50% of the specific fixation of ^3H rauwolscine,
CX=concentration of the product under test inhibiting 50% of the specific fixation of ^3H rauwolscine.
The relative affinity was calculated by the relation: […]

[2] = system: male mice of CD1 CHARLES RIVER type; experiment: Hypobaric anoxia survival time in mice; format: in vivo; conditions: intra-peritoneally 10 mg/kg, 60 minutes before the test, pressure drop of 630 mm Hg, relative to control animals
Procedure: Male mice of CD1 CHARLES RIVER type weighing 20 to 25 grams having gone without food for 6 hours were placed in a 2-liter chamber in which a pressure drop of 630 mm Hg was carried out according to the following kinetics:
The survival time was measured from the time TO and over a maximum time of 3 minutes and it was about 70 seconds for the control animals. The rectal temperature was measured immediately before the determination of the survival time. The products were administered intra-peritoneally at a dose of 10 mg/kg and in a volume of 10 ml/kg 60 minutes before the test and the control animals received the vehicle. The results were determined as a percentage of increase in the survival time relative to the control animals.

Row | Compound | ARL (relative affinity, from CD and CX, relative to phentolamine as reference product) [1] | % increase in survival time [2] [%]
1 | CC1=Cn2c3c(c4ccccc42)CCN2CCCC1C32 (stereo not drawn) [Example 7, (3-α)-15-methyl-20,21-dinoreburnameinine] | 980 | –
2 | Ethyl [16α, (±)]-20,21-dinoreburnamenine-15-acetate [Example 12] | 942 | –
3 | [16α, (±)-20,21-dinoreburnamenin-15-methanol [Example 13] | 346 | 11
4 | [16α, (±)]-14,15-dihydro-15-methylene-20,21-dinorburnamenine [Example 11] | 343 | –
5 | [16α, (±)]-15-(1-propynyl)-20,21-dinoreburnamenine [Example 2] | 367 | –
6 | [16α, (±)]-15-methyl-20,21-dinoreburnamenine [Example 5] | 456 | 34
7 | [16α, (±)]-N,N-dimethyl-20,21dinoreburnamenin-15-methanamine [Example 14] | – | 12
